According to patent US20050112573A1, “Method of detecting toxic substance” (priority 2001, published 2005):

System: yeast genes (level of expressed mRNA)
Experiment: DNA chip analysis of expressed mRNA of yeast genes after 2 h culture with a toxic chemical substance
Type: cell-based, Saccharomyces cerevisiae S288C
Method in brief: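 S. cerevisiae S288C in YPD at 25 °C was exposed at log phase for 2 h to a growth-inhibiting, non-lethal concentration of the chemical. Poly(A) mRNA was reverse-transcribed with Cy3- or Cy5-dUTP and hybridized to a whole-genome yeast DNA chip (65 °C, >12 h). Values are fluorescence ratios versus untreated cells.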

O=[N+]([O-])c1cc[n+]([O-])c2ccccc12 [(5), 4-nitroquinolin-N-oxide]
The level of expressed mRNA in the presence of chemical substance/The level of expressed mRNA in the absence of chemical substance (yeast gene YKL013C): 1.9
The level of expressed mRNA in the presence of chemical substance/The level of expressed mRNA in the absence of chemical substance (yeast gene YKL039W): 0.7
The level of expressed mRNA in the presence of chemical substance/The level of expressed mRNA in the absence of chemical substance (yeast gene YKL041W): 1.3
The level of expressed mRNA in the presence of chemical substance/The level of expressed mRNA in the absence of chemical substance (yeast gene YKL096W): 0.6
The level of expressed mRNA in the presence of chemical substance/The level of expressed mRNA in the absence of chemical substance (yeast gene YKL139W): 2.8
The level of expressed mRNA in the presence of chemical substance/The level of expressed mRNA in the absence of chemical substance (yeast gene YKL165C): 0.9
The level of expressed mRNA in the presence of chemical substance/The level of expressed mRNA in the absence of chemical substance (yeast gene YKL193C): 1.1
The level of expressed mRNA in the presence of chemical substance/The level of expressed mRNA in the absence of chemical substance (yeast gene YLR120C): 1.1
The level of expressed mRNA in the presence of chemical substance/The level of expressed mRNA in the absence of chemical substance (yeast gene YLR136C): 1.6
The level of expressed mRNA in the presence of chemical substance/The level of expressed mRNA in the absence of chemical substance (yeast gene YLR178C): 1.0
The level of expressed mRNA in the presence of chemical substance/The level of expressed mRNA in the absence of chemical substance (yeast gene YLR250W): 1.4
The level of expressed mRNA in the presence of chemical substance/The level of expressed mRNA in the absence of chemical substance (yeast gene YLR327C): 1.3
The level of expressed mRNA in the presence of chemical substance/The level of expressed mRNA in the absence of chemical substance (yeast gene YLR356W): 1.1
The level of expressed mRNA in the presence of chemical substance/The level of expressed mRNA in the absence of chemical substance (yeast gene YLR362W): 1.5
The level of expressed mRNA in the presence of chemical substance/The level of expressed mRNA in the absence of chemical substance (yeast gene YLR391W): 1.2
The level of expressed mRNA in the presence of chemical substance/The level of expressed mRNA in the absence of chemical substance (yeast gene YLR429W): 1.4
The level of expressed mRNA in the presence of chemical substance/The level of expressed mRNA in the absence of chemical substance (yeast gene YMR004W): 1.0
The level of expressed mRNA in the presence of chemical substance/The level of expressed mRNA in the absence of chemical substance (yeast gene YMR094W): 0.9
The level of expressed mRNA in the presence of chemical substance/The level of expressed mRNA in the absence of chemical substance (yeast gene YMR104C): 0.7
The level of expressed mRNA in the presence of chemical substance/The level of expressed mRNA in the absence of chemical substance (yeast gene YMR219W): 1.6
The level of expressed mRNA in the presence of chemical substance/The level of expressed mRNA in the absence of chemical substance (yeast gene YMR226C): 0.9
The level of expressed mRNA in the presence of chemical substance/The level of expressed mRNA in the absence of chemical substance (yeast gene YMR275C): 0.7
The level of expressed mRNA in the presence of chemical substance/The level of expressed mRNA in the absence of chemical substance (yeast gene YMR276W): 1.3
The level of expressed mRNA in the presence of chemical substance/The level of expressed mRNA in the absence of chemical substance (yeast gene YNL006W): 0.9
The level of expressed mRNA in the presence of chemical substance/The level of expressed mRNA in the absence of chemical substance (yeast gene YNL007C): 1.2
The level of expressed mRNA in the presence of chemical substance/The level of expressed mRNA in the absence of chemical substance (yeast gene YNL093W): 1.2
The level of expressed mRNA in the presence of chemical substance/The level of expressed mRNA in the absence of chemical substance (yeast gene YNL333W): 1.5
The level of expressed mRNA in the presence of chemical substance/The level of expressed mRNA in the absence of chemical substance (yeast gene YNR010W): 1.8
The level of expressed mRNA in the presence of chemical substance/The level of expressed mRNA in the absence of chemical substance (yeast gene YNR069C): 1.4
The level of expressed mRNA in the presence of chemical substance/The level of expressed mRNA in the absence of chemical substance (yeast gene YOL013C): 0.7
The level of expressed mRNA in the presence of chemical substance/The level of expressed mRNA in the absence of chemical substance (yeast gene YOL164W): 1.6
The level of expressed mRNA in the presence of chemical substance/The level of expressed mRNA in the absence of chemical substance (yeast gene YOR036W): 1.1
The level of expressed mRNA in the presence of chemical substance/The level of expressed mRNA in the absence of chemical substance (yeast gene YOR117W): 1.2
The level of expressed mRNA in the presence of chemical substance/The level of expressed mRNA in the absence of chemical substance (yeast gene YOR124C): 1.1
The level of expressed mRNA in the presence of chemical substance/The level of expressed mRNA in the absence of chemical substance (yeast gene YOR132W): 1.1
The level of expressed mRNA in the presence of chemical substance/The level of expressed mRNA in the absence of chemical substance (yeast gene YOR157C): 0.7
The level of expressed mRNA in the presence of chemical substance/The level of expressed mRNA in the absence of chemical substance (yeast gene YOR181W): 0.7
The level of expressed mRNA in the presence of chemical substance/The level of expressed mRNA in the absence of chemical substance (yeast gene YOR185C): 1.2
The level of expressed mRNA in the presence of chemical substance/The level of expressed mRNA in the absence of chemical substance (yeast gene YOR198C): 0.8
The level of expressed mRNA in the presence of chemical substance/The level of expressed mRNA in the absence of chemical substance (yeast gene YOR259C): 2.0
The level of expressed mRNA in the presence of chemical substance/The level of expressed mRNA in the absence of chemical substance (yeast gene YOR261C): 1.5
The level of expressed mRNA in the presence of chemical substance/The level of expressed mRNA in the absence of chemical substance (yeast gene YOR288C): 1.1
The level of expressed mRNA in the presence of chemical substance/The level of expressed mRNA in the absence of chemical substance (yeast gene YOR355W): 1.0
The level of expressed mRNA in the presence of chemical substance/The level of expressed mRNA in the absence of chemical substance (yeast gene YOR383C): 0.9
The level of expressed mRNA in the presence of chemical substance/The level of expressed mRNA in the absence of chemical substance (yeast gene YPL089C): 1.4
The level of expressed mRNA in the presence of chemical substance/The level of expressed mRNA in the absence of chemical substance (yeast gene YPL109C): 1.2
The level of expressed mRNA in the presence of chemical substance/The level of expressed mRNA in the absence of chemical substance (yeast gene YPL149W): 0.8
The level of expressed mRNA in the presence of chemical substance/The level of expressed mRNA in the absence of chemical substance (yeast gene YPL154C): 1.2
The level of expressed mRNA in the presence of chemical substance/The level of expressed mRNA in the absence of chemical substance (yeast gene YPR103W): 1.7
The level of expressed mRNA in the presence of chemical substance/The level of expressed mRNA in the absence of chemical substance (yeast gene YPR108W): 1.3
